Data on 16 compounds can be found in US7223888B2, “Mu opioid receptor ligands: methods of use and synthesis” (President and Fellows of Harvard College, priority 2002, dated 2007).

What is called Ki is the equilibrium dissociation constant of an inhibitor or competing ligand from its target.

Structures are written as SMILES. Where two headings read alike, the source gives them in different places.

Experiment [1] addresses T1, hMOR-1 (Homo sapiens, UniProt P35372).
T1 construct: purchased Amersham Biosciences; host or cells: stably transfected CHO cells (membrane preparation)
Description: MOR GTP-γ-S assay (MOR activation). The format is biochemical. As to conditions: CHO membranes with hMOR-1. The method, then: MOR GTP-γ-S assay was run in the same 200 μL, 96 well format as the binding assay. Each microassay contained experimental compound, 0.04 nM GTP-γ-^35S, 9 μM GDP, and about 0.02 nM MOR (from stably transfected CHO cells), in assay buffer (50 mM Tris-HCl, 3 mM MgCl2, 0.2 mM EGTA, 100 mM NaCl, pH 7.4). The assays were incubated for two to three hours at room temperature, then filtered onto a filter plate. The plate was dried; scintillation fluid was added, and the wells were counted for ^35S. Blank assays were run to determine non-specific binding. […] The results were averaged; the non-specific counts were subtracted, and the resulting value was expressed as a percent of the value obtained for DAMGO. The error reported is two standard deviations from the mean of the quadruplicate experiment. The values were compared using one way Anova with Tukey's post-hoc analysis.

Experiment [2] deals with T1, hMOR-1. Put plainly: Opioid receptor competitive binding assay, MOR (3H-DAMGO). The method, then: (§1) For selected compounds, Ki for MOR, DOR, and KOR were determined according to the following procedure: Recombinant hMOR-1 membrane preps from stably transfected CHO cells and recombinant hDOR-1 membrane preps from stably transfected HEK-293 cells were purchased from Amersham Biosciences. Guinea pig cerebellum preparations were used for KOR assays.
(§2) Each microassay from an assay plate was filtered through an individual well of a Packard GF/B 96-well filter plate (glass fiber filter) to collect the membranes. Each well was washed twice with 200 μL of ice cold wash buffer (50 mM Tris, pH 7.4). The filter plate was allowed to dry overnight, the back was sealed, and Packard Bioscience Microscint PS scintillation fluid (75 μL) was added to each well, which was then counted for ^3H for 2 minutes using a Packard Bioscience TopCount scintillation counter plate reader.
(§3) Each compound was assayed at 8 concentrations, using half-log serial dilutions. Each concentration was tested in triplicate, and the ^3H cpm were averaged.
(§4) This concentration was determined experimentally by scintillation counting an aliquot of the radioligand stock solution used in the assay.
(§5) Kd=the binding constant for the radioligand.
(§6) This triplicate experiment was repeated three times for the MOR and twice for the DOR and the KOR.

A further experiment addresses T2, KOR (Cavia porcellus, UniProt P41144).
T2 construct: from tissue; host or cells: guinea pig cerebellum preparation
Description: Opioid receptor competitive binding assay, KOR (3H-U-69,593). Also on record: species or system guinea pig. The following applies: for Ki KOR/Ki MOR: Table 12, selectivity for MOR versus KOR. The procedure:
as §1, §2, §3, §6

The target of a further experiment is T3, hDOR-1 (Homo sapiens, UniProt P41143).
T3 construct: purchased Amersham Biosciences; host or cells: stably transfected HEK-293 cells (membrane preparation)
Put plainly: Opioid receptor competitive binding assay, DOR. The following applies: for Ki DOR/Ki MOR: Table 12, selectivity for MOR versus DOR (3H-DPDPE, hDOR-1). The procedure: as §1, §2, §3, §4, §5, §6

Setting [3] is: Ki MOR, Table 3, 3H-DAMGO, hMOR-1 stably transfected into CHO cells, errors 95% confidence interval.
The mark [4] stands for this setting: Ki KOR, Table 9, 3H-U-69,593, guinea pig cerebellum preps, errors two standard deviations.
Setting [5] is: Ki DOR, Table 6, footnote:, hDOR-1 stably transfected into HEK-293 cells, errors two standard deviations.

Regarding `NC(=O)[C@H](Cc1ccccc1)NC(=O)[C@H](Cc1ccccc1)NC(=O)[C@H]1CCCN1C(=O)[C@@H](N)Cc1ccc(O)cc1` [Compound 1, Endomorphin-2, reference compound], on hMOR-1 [1] (Table 15, compound 10 μM (footnote), percentage of DAMGO induced GTP-g-35S specific binding), the “% GTP-γ-35S bound” value is 100 ± 6%. The “% GTP-γ-S bound” value on hMOR-1 [1] (Table 16, compound 10 μM, percentage of DAMGO induced GTP-γ-35S specific binding) turned out to be 100 ± 6%. In addition, the inhibition constant Ki at hMOR-1 [2] (setting [3]) came out at 1.2 ± 0.1 nM; at hMOR-1 [2] (Ki MOR, Table 4, 3H-DAMGO, hMOR-1 stably transfected into CHO cells, errors 95% confidence interval), 0.69 ± 0.18 nM; at hMOR-1 [2] (Ki MOR, Table 5, 3H-DAMGO, hMOR-1 stably transfected into CHO cells), 1 ± 0.1 nM.

For `NC(=O)C(Cc1ccccc1)NC(=O)C(Cc1ccccc1)C(O)/C=C/CC(O)C(N)Cc1ccc(O)cc1` (single isomer, unassigned) [(S,S,S,R)-2, (E)-8-Amino-2-benzyl-3,7-dihydroxy-9-(4-hydroxy-phenyl)-non-4-enoic acid (1-carbamoyl-2-phenyl-ethyl)-amide], the Ki on KOR (setting [4]) was found to be 1300 ± 500 nM; at hDOR-1 (setting [5]), 510 ± 10 nM; on hMOR-1 [2] (setting [3]), 8.8 ± 0.7 nM. The “Ki KOR/Ki MOR” value on KOR is on record as 150. Further, the “Ki DOR/Ki MOR” value at hDOR-1 was determined as 57.

On to `NC(=O)C(Cc1ccccc1)NC(=O)C(Cc1ccccc1)C(O)CCCC(O)C(N)Cc1ccc(O)cc1` (single isomer, unassigned) [(S,S,R,R)-6, 8-Amino-2-benzyl-3,7-dihydroxy-9-(4-hydroxy-phenyl)-nonanoic acid (1-carbamoyl-2-phenyl-ethyl)-amide], for which the inhibition constant (Ki) at KOR (read-out: Ki KOR) is 730 ± 270 nM; on hDOR-1 (read-out: Ki DOR) it was 3000 ± 100 nM; on hMOR-1 [2] (setting [3]) it was 95 ± 61 nM.

Regarding `NC(=O)C(Cc1ccccc1)NC(=O)C(Cc1ccccc1)C(O)CCCC(O)C(N)Cc1ccc(O)cc1` (single isomer, unassigned) [(S,R,S,R)-6, 8-Amino-2-benzyl-3,7-dihydroxy-9-(4-hydroxy-phenyl)-nonanoic acid (1-carbamoyl-2-phenyl-ethyl)-amide], the Ki is 6600 ± 3500 nM on KOR (read-out: Ki KOR), 4000 ± 100 nM at hDOR-1 (read-out: Ki DOR) and 190 ± 20 nM at hMOR-1 [2] (read-out: Ki MOR).

As to `NC(Cc1ccc(O)cc1)C(O)C/C=C/C(O)C(Cc1ccccc1)C(=O)NCCc1ccccc1` (single isomer, unassigned) [(S,S,S,R)-10, (E)-8-Amino-2-benzyl-3,7-dihydroxy-9-(4-hydroxy-phenyl)-non-4-enoic acid phenethyl-amide], the Ki at KOR (setting [4]) stood at 1800 ± 300 nM; at hDOR-1 (setting [5]), 3600 ± 100 nM; on hMOR-1 [2] (setting [3]), 21 ± 1 nM. At KOR, the “Ki KOR/Ki MOR” value is on record as 86. The “Ki DOR/Ki MOR” value at hDOR-1 was found to be 170.

Turning to `NC(=O)C(Cc1ccccc1)NC(=O)C(Cc1ccccc1)C(O)/C=C/CC(O)C(N)Cc1ccc(O)cc1` (single isomer, unassigned) [(S,S,R,S)-2, (E)-8-Amino-2-benzyl-3,7-dihydroxy-9-(4-hydroxy-phenyl)-non-4-enoic acid (1-carbamoyl-2-phenyl-ethyl)-amide], the results for the inhibition constant (Ki) on KOR (setting [4]), on hDOR-1 (setting [5]) and on hMOR-1 [2] (setting [3]) were 1300 ± 100 nM, 6900 ± 1300 nM and 79 ± 23 nM, respectively. In addition, the “Ki KOR/Ki MOR” value on KOR is listed as 16. In addition, the “Ki DOR/Ki MOR” value on hDOR-1 came out at 86.

As to `NC(=O)C(Cc1ccccc1)NC(=O)C(Cc1ccccc1)C(O)/C=C\CC(O)C(N)Cc1ccc(O)cc1` (single isomer, unassigned) [(S,R,R,R)-9, (Z)-8-Amino-2-benzyl-3,7-dihydroxy-9-(4-hydroxy-phenyl)-non-4-enoic acid (1-carbamoyl-2-phenyl-ethyl)-amide], the Ki at KOR (setting [4]) worked out at 5800 ± 1800 nM; on hDOR-1 (setting [5]), 9200 ± 2100 nM; at hMOR-1 [2] (setting [3]) it was 400 ± 110 nM. In addition, the “Ki KOR/Ki MOR” value at KOR is on record as 15. Also, at hDOR-1, the “Ki DOR/Ki MOR” value turned out to be 23.

`NC(=O)C(Cc1ccccc1)NC(=O)C(Cc1ccccc1)C(O)/C=C\CC(O)C(N)Cc1ccc(O)cc1` (single isomer, unassigned) [(S,R,S,R)-9, (Z)-8-Amino-2-benzyl-3,7-dihydroxy-9-(4-hydroxy-phenyl)-non-4-enoic acid (1-carbamoyl-2-phenyl-ethyl)-amide]: the Ki at KOR (setting [4]) stood at 1700 ± 400 nM; on hDOR-1 (setting [5]), 10000 ± 2000 nM; at hMOR-1 [2] (setting [3]), 260 ± 70 nM. For the same compound, the “Ki KOR/Ki MOR” value on KOR was found to be 7. Also, on hDOR-1, the “Ki DOR/Ki MOR” value is on record as 39.

On to `C=CC(O)C(Cc1ccccc1)NC(=O)C(Cc1ccccc1)C(O)/C=C/CC(O)C(N)Cc1ccc(O)cc1` (single isomer, unassigned) [(S,S,S,R)-12, (E)-8-Amino-2-benzyl-3,7-dihydroxy-9-(4-hydroxy-phenyl)-non-4-enoic acid (1-benzyl-2-hydroxy-but-3-enyl)-amide], for which the Ki was determined as 1050 ± 10 nM at KOR (setting [4]), 680 ± 40 nM at hDOR-1 (setting [5]) and 20 ± 1 nM on hMOR-1 [2] (setting [3]). Also, the “Ki KOR/Ki MOR” value at KOR is recorded as 53. Moreover, at hDOR-1, the “Ki DOR/Ki MOR” value is listed as 34.

Regarding `NC(=O)C(Cc1ccccc1)OC(=O)C(Cc1ccccc1)C(O)/C=C/CC(O)C(N)Cc1ccc(O)cc1` [(S,S,S,R)-13, (E)-8-Amino-2-benzyl-3,7-dihydroxy-9-(4-hydroxy-phenyl)-non-4-enoic acid1-carbamoyl-2-phenyl-ethyl ester], the Ki amounted to 6000 ± 2100 nM on KOR (read-out: Ki KOR), 910 ± 250 nM at hDOR-1 (read-out: Ki DOR) and 37 ± 8 nM at hMOR-1 [2] (setting [3]).

On to `NC(Cc1ccc(O)cc1)C(O)C/C=C/C(O)C(Cc1ccccc1)C(=O)NC(CO)Cc1ccccc1` (single isomer, unassigned) [(S,S,R,R)-11, (E)-8-Amino-2-benzyl-3,7-dihydroxy-9-(4-hydroxy-phenyl)-non-4-enoic acid (1-hydroxymethyl-2-phenyl-ethyl)-amide], for which the values for the Ki at KOR (setting [4]), at hDOR-1 (setting [5]) and at hMOR-1 [2] (setting [3]) were 2900 ± 400 nM, 620 ± 80 nM and 16 ± 1 nM, respectively. Further, on KOR, the “Ki KOR/Ki MOR” value stood at 180. Moreover, the “Ki DOR/Ki MOR” value on hDOR-1 is recorded as 39.

On to `NC(=O)C(Cc1ccccc1)NC(=O)C(Cc1ccccc1)C(O)/C=C\CC(O)C(N)Cc1ccc(O)cc1` (single isomer, unassigned) [(S,S,R,R)-9, (Z)-8-Amino-2-benzyl-3,7-dihydroxy-9-(4-hydroxy-phenyl)-non-4-enoic acid (1-carbamoyl-2-phenyl-ethyl)-amide], for which the results for the Ki at KOR (setting [4]), at hDOR-1 (setting [5]) and on hMOR-1 [2] (setting [3]) were 1600 ± 100 nM, 4300 ± 1400 nM and 74 ± 12 nM, respectively. Besides, on KOR, the “Ki KOR/Ki MOR” value was determined as 22. The “Ki DOR/Ki MOR” value at hDOR-1 was 58.

Turning to `C=CC(O)C(Cc1ccccc1)NC(=O)C(Cc1ccccc1)C(O)/C=C/CC(O)C(N)Cc1ccc(O)cc1` (single isomer, unassigned) [(S,R,R,R)-12, (E)-8-Amino-2-benzyl-3,7-dihydroxy-9-(4-hydroxy-phenyl)-non-4-enoic acid (1-benzyl-2-hydroxy-but-3-enyl)-amide], the values for the Ki at KOR (setting [4]), on hDOR-1 (setting [5]) and at hMOR-1 [2] (setting [3]) were 970 ± 80 nM, 570 ± 280 nM and 37 ± 1 nM, respectively. Also, at KOR, the “Ki KOR/Ki MOR” value stood at 26. For the same compound, at hDOR-1, the “Ki DOR/Ki MOR” value is given as 15.

For the compound `NC(=O)C(Cc1ccccc1)NC(=O)C(Cc1ccccc1)C(O)/C=C/CC(O)C(N)Cc1ccc(O)cc1` (single isomer, unassigned) [(S,S,R,R)-2, (E)-8-Amino-2-benzyl-3,7-dihydroxy-9-(4-hydroxy-phenyl)-non-4-enoic acid (1-carbamoyl-2-phenyl-ethyl)-amide], the figures for the Ki on KOR (setting [4]), at hDOR-1 (setting [5]) and at hMOR-1 [2] (setting [3]) were 1200 ± 700 nM, 1200 ± 100 nM and 25 ± 5 nM, respectively. Besides, the “Ki KOR/Ki MOR” value at KOR came to 48. For the same compound, the “Ki DOR/Ki MOR” value on hDOR-1 amounted to 45.

As to `NC(Cc1ccc(O)cc1)C(O)C/C=C/C(O)C(Cc1ccccc1)C(=O)NCCc1ccccc1` (single isomer, unassigned) [(S,R,R,R)-10, (E)-8-Amino-2-benzyl-3,7-dihydroxy-9-(4-hydroxy-phenyl)-non-4-enoic acid phenethyl-amide], the inhibition constant (Ki) stood at 2800 ± 600 nM on KOR (setting [4]), 2900 ± 600 nM at hDOR-1 (setting [5]) and 53 ± 6 nM on hMOR-1 [2] (setting [3]). For the same compound, the “Ki KOR/Ki MOR” value on KOR is 53. In addition, at hDOR-1, the “Ki DOR/Ki MOR” value was 55.

For the compound `NC(Cc1ccc(O)cc1)C(O)C/C=C/C(O)C(Cc1ccccc1)C(=O)NC(CO)Cc1ccccc1` (single isomer, unassigned) [(S,R,R,R)-11, (E)-8-Amino-2-benzyl-3,7-dihydroxy-9-(4-hydroxy-phenyl)-non-4-enoic acid (1-hydroxymethyl-2-phenyl-ethyl)-amide], the Ki amounted to 3400 ± 1300 nM at KOR (setting [4]), 960 ± 100 nM on hDOR-1 (setting [5]) and 28 ± 5 nM at hMOR-1 [2] (setting [3]). In addition, on KOR, the “Ki KOR/Ki MOR” value worked out at 120. Further, the “Ki DOR/Ki MOR” value at hDOR-1 is on record as 34.
